This test relates to soybean cultivar Primus. The test can be described thus: Soybean pot experiment. As to conditions: low phosphate, 4 weeks. It is filed as in vivo. The procedure:
All Arabidopsis plant experiments were performed using the Arabidopsis thaliana Columbia-0 background. The Arabidopsis pSPX1::GUS line is described in the […] 2008, 54: 965-975. For rice, the cultivar Nipponbare was used. For maize, the cultivars DKC 2931 and 8104 were used for regular pot experiments and sand-based pot experiments, respectively. For soybean, the cultivar Primus was used. […] The medium was solidified due to the addition of 0.6% Gelrite, unless stated otherwise. […]
Regular Arabidopsis, soybean and maize pot experiments used an unfertilized potting soil, which was supplemented at the start of the experiment with 50 ml H2O containing 0.25 g/l NH4NO3 and 0.44 g/l (high phosphate) or no (maize and soybean) or 0.11 g/l KH2PO (Arabidopsis) for low phosphate conditions. […] Compound concentration was 10 μM, calculated based on the total water content after watering, and was added at the start of the experiment (Arabidopsis) or once a week (maize). […] All parameters in the sand experiment, except the rate of leaf 4 (measured the first 4 days after emergence), were measured 19 days after sowing. Measurements in the pot experiments with potting soil were done after 4 weeks of growth, except for leaf 5, which was measured at 26 days. […]

On to `CCN(CCCNc1ncnc2nc(N)ccc12)c1ccccc1` [Example 1], for which the Biomass is on record as 4.4 g and the Plant height is recorded as 63 cm.

The record behind these values is patent publication US20240306641A1, “P-BOOSTER” (EUROCHEM ANTWERPEN, priority 2021, published 2024).
